The values below come from patent publication US12060387B2, “Polypeptide-based shuttle agents for improving the transduction efficiency of polypeptide cargos to the cytosol of target eukaryotic cells, uses thereof, methods and kits relating to same” (priority 2015, dated 2024).

Series [1] deals with primary myoblasts. The series is described as follows: Calcein endosomal escape assay, quantification by flow cytometry. The series is classed as cell-based, Human. As for the experimental part: (§1) In addition to microscopy, flow cytometry allows a more quantitative analysis of the endosomal leakage as the fluorescence intensity signal increases once the calcein is released in the cytoplasm. Calcein fluorescence is optimal at physiological pH (e.g., in the cytosol), as compared to the acidic environment of the endosome.
(§2) The cells were allowed to attach by incubating overnight in appropriate growth media, as described in Example 1. The next day, the media in wells was removed and replaced with 50 μL of fresh media without serum containing 62.5 μg/mL (100 μM) of calcein, except for HEK293A (250 μg/mL, 400 μM). At the same time, the shuttle agent(s) to be tested was added at a predetermined concentration. The plate was incubated at 37° C. for 30 minutes. The cells were washed with 1×PBS (37° C.) and fresh media containing 5-10% serum was added. The plate was incubated at 37° C. for 2.5 hours. The cells were washed with 1×PBS and detached using trypsinization.
(§3) Untreated calcein-loaded cells were used as a control to distinguish cells having a baseline of fluorescence due to endosomally-trapped calcein from cells having increased fluorescence due to release of calcein from endosomes. Fluorescence signal means (“mean counts”) were analyzed for endosomal escape quantification. In some cases, the “Mean Factor” was calculated, which corresponds to the fold-increase of the mean counts relative to control (untreated calcein-loaded cells). […] The cellular mortality was monitored with the percentage of cells in the total events scanned. When it became lower than the control, it was considered that the number of cellular debris was increasing due to toxicity and the assay was discarded.
To examine the effects of the shuttle agents on primary cells, primary myoblast cells were cultured and tested in the endosomal escape assays as described in Example 2.1. The results of flow cytometry analyses are summarized below in Tables 2.9 and 2.10, and in FIG. 4. In each case, the flow cytometry results were also confirmed by fluorescence microscopy.

Series [2] can be described thus: Cell toxicity / % cell viability by flow cytometry (cells in total events v. untreated). It is filed as cell-based, Human. The note with it: human, HeLa cells, HeLa, 1 hour; for viability at 1 h, 0.5 µM / viability at 1 h, 1 µM / viability at 1 h, 3 µM / viability at 1 h, 5 µM: Cell viability (%) (±St. Dev.; n = 3), read-out: Cell viability (%) (±St. Dev.; n = 3); for viability at 1 h, 0.5 µM: shuttle 0.5 μM; for viability at 1 h, 1 µM: shuttle 1 μM; for viability at 1 h, 3 µM: shuttle 3 μM; for viability at 1 h, 5 µM: shuttle 5 μM.

Series [3] deals with HeLa cells. The description is as above. The note with it: HeLa; GFP-NLS 5 μM; shuttle 1 μM; 1 hour. It is filed as cell-based, Human.
Assay in series [4]: as above
Particulars: human, THP-1 cells, Cell viability (%) (±St. Dev.; n = 3), FIG. 17B; THP-1; GFP-NLS 5 μM; shuttle 1 μM; 5 minutes. It is filed as cell-based, human.

Series [5] concerns HeLa cells. It is filed as cell-based, Human. Here is the method: as §1, §2, §3
HeLa cells were cultured and tested in the endosomal escape assays as described in Example 2.1. In each case, the flow cytometry results were also confirmed by fluorescence microscopy (data not shown).

Series [6] has as its system HeLa cells. The series is described as follows: GFP transduction efficiency, flow cytometry (% GFP-positive cells). The series is classed as cell-based, Human. Particulars: for Mean (%) (n = 3), FIG. 7B: shuttle 2.5 μM. Here is the method: GFP, GFP-NLS and TAT-GFP are recombinant proteins developed and produced by Feldan (see Example 3.4 below).
Briefly, GFP recombinant protein was co-incubated with different concentrations of CM18-TAT-Cys or dimerized CM18-TAT-Cys (dCM18-TAT-Cys), and then exposed to HeLa cells for 1 hour.
Briefly, GFP recombinant protein (5 μM) was co-incubated with different concentrations and combinations of CM18-TAT-Cys, CM18-Penetratin-Cys, and dimers of each (dCM18-TAT-Cys, dCM18-Penetratin-Cys), and then exposed to HeLa cells for 1 hour. […] The results are shown in Table 3.3 and FIG. 8, as well as in Table 3.4 and FIG. 9.

The subject of series [7] is HeLa cells. The series is described as follows: GFP-NLS transduction efficiency, flow cytometry (Pos cells %, relative fluorescence intensity FL1-A). It is filed as cell-based, Human. Particulars: GFP-NLS 5 μM, 1 hour.
Where [8] appears, read: FIG. 11B, TAT-GFP 5 μM, FIG. 11B.
The mark [9] stands for this setting: FIG. 13B, GFP-NLS 5 μM, FIG. 13B.
The mark [10] stands for this setting: FIG. 21B, GFP-NLS 5 μM, FIG. 21B.

Like-named read-outs stand apart in the source and are kept apart here. Where no end group is shown, it is not given here.

Regarding “KWKLFKKIGAVLKVLTTGYGRKKRRQRRRC [CM18-TAT-Cys]”, the “concentrations associated with an increase in cell toxicity” value in series [1] (myoblast cells) is recorded as “above 10 μM”. Besides, the viability at 1 h, 0.5 µM was 88.4 ± 6% in series [2] (FIG. 6B, GFP 5 μM, FIG. 6B); 84.4 ± 5% in series [2] (setting [8]); 87.6 ± 4% in series [2] (setting [9]). In addition, the viability at 1 h, 1 µM in series [2] (FIG. 6B, GFP 5 μM, FIG. 6B) was determined as 90 ± 6%; in series [2] (setting [8]) it was 89.3 ± 5.26%; in series [2] (setting [9]), 93 ± 8%. The viability at 1 h, 3 µM in series [2] (FIG. 6B, GFP 5 μM, FIG. 6B) is 91 ± 5%; in series [2] (setting [8]) it was 93.2 ± 6.28%; in series [2] (setting [9]), 94 ± 5%; in series [2] (setting [10]), 89 ± 5.37%. The viability at 1 h, 5 µM in series [2] (FIG. 6B, GFP 5 μM, FIG. 6B) amounted to 90 ± 7%; in series [2] (setting [8]) it was 95.1 ± 5.28%; in series [2] (setting [9]) it was 93 ± 4%; in series [2] (setting [10]), 81 ± 6.34%. Also, the viability at 1 h, 3.5 µM in series [2] (antibody 0.5 μM, shuttle 3.5 μM, read-out: Cell viability (%) (± St. Dev.; n = 3), FIG. 19B) stood at 95 ± 4.06%. Further, in series [3], the “Cell viability (%) (±St. Dev.; n = 3), FIG. 21B” value amounted to 94 ± 4.28%. In series [4], this sequence came in with a viability at 5 min, 1 µM of 85 ± 6%.

For the sequence “KWKLFKKIGAVLKVLTTGYGRKKRRQRRRC [dCM18-TAT-Cys]”, the “Mean Factor” value in series [5] (Table 2.6, dimer 2 μM) is given as 1.3; in series [5] (Table 2.7, dimer 2 μM), 3.1; in series [1] (primary myoblasts, peptide 2.5 μM, factor v. no peptide), 2.1. Further, the “Mean counts (n = 4)” value in series [5] (Table 2.6, dimer 2 μM) was 79 380. In series [5] (Table 2.7, dimer 2 μM), the “Mean counts (n = 3)” value is 174 274. For the same sequence, in series [1] (primary myoblasts, peptide 2.5 μM, Table 2.11), the Mean counts is 64 864. Also, the “GFP transduction efficiency / intracellular delivery (in words)” value in series [6] (GFP 5 μM, 1 hour, Table 3.3 and FIG. 8) was “increased”; in series [6] (GFP 5 μM, 1 hour, Table 3.4 and FIG. 9), “increased”. Also, the “Mean (%) (n = 3), FIG. 8” value in series [6] (GFP 5 μM, shuttle 0.5 μM, 1 hour) is listed as 8.86%. The “Mean (%) (n = 3), FIG. 9” value in series [6] (GFP 5 μM, shuttle 1 μM, 1 hour) stood at 18.43%. Also, the “Mean (%) (n = 3), FIG. 7B” value worked out at 9.38% in series [6] (GFP 1 μM), 22.2% in series [6] (GFP 5 μM) and 34.2% in series [6] (GFP 10 μM). Further, in series [7] (Tables 5.2, 5.3, FIGS. 14, 15), the “GFP-NLS transduction efficiency / intracellular delivery (in words)” value was “increased”. Further, the “Mean (%) (n = 3), FIG. 14” value in series [7] (shuttle 0.5 μM) was found to be 8.29%. Moreover, the “Mean (%) (n = 3), FIG. 15” value in series [7] (shuttle 1 μM) is 17.83%.
